Data as given in patent US10544075B2 (OREGON HEALTH & SCIENCE UNIVERSITY, priority 2016, dated 2020).

Key:
[1] = Single time-point drug distribution of parent drugs from amides in brain and serum; type: in vivo, C57Bl/6 mice; details: equimolar systemic dose of 3.05 μmol/kg, 1 hour, brain
Experimental: Wild type male C57Bl/6 mice, aged 8-10 weeks, were housed in a climate-controlled room with a 12 hour light-dark cycle with ad libitum access to food and water. To compare the single time-point drug distribution of JD-20 with JD-20 generated from the amide MA-JD20, and JD-21 with JD-21 generated from the amide MA-JD-21, the concentrations of the parent drugs were analyzed in brain and serum of mice by administering a dose of 3.05 μmol/kg (three mice per dose) with JD-20, JD-21, MA-JD20 and MA-JD21 both intraperitoneally and orally. The compounds were dissolved in a mixture of 50:50 DMSO and 0.9% sodium chloride bacteriostatic solution. Oral gavage was performed with the use of plastic feeding tubes (20 ga×38 mm, Instech Laboratories Inc., PA, USA) connected to […] insulin syringes (Covidien LLC MA, USA). In both experiments, the mice were euthanized after 1 hour following drug administration.
The tissues were processed as follows: The brains were collected in previously weighed homogenizer tubes with 3 Gold Spec ⅛ chrome steel balls (Applied Industrial Technologies) and immediately frozen at −80° C. The blood samples were kept on ice for 30 mins and then spun down at 5400×G at 4° C. for 15 min. […]
The serum samples were warmed to room temperature. […] The serum samples thus prepared were submitted for LC-MS/MS analysis to quantify the amount of free JD-20 or JD-21. […]

[2] = 24 h time-course study after oral dose of MA-JD20; type: in vivo, mice; details: oral MA-JD20, JD-20 measured
Experimental: As a follow-up of the single time point study, a 24 h time course study through oral gavage was performed for the amides, MA-JD20 and MA-JD21, and the corresponding JD-20 or JD-21 concentrations were measured in brain and blood of mice. Pharmacokinetic time-course curves were generated from these analyses and area under the curve (AUC) values for brain and blood were obtained.
Following the single time point drug distribution evaluation, to further understand the pharmacokinetic properties of the amide, a 24 h time-course study was conducted by administering an oral dose of […] of MA-JD20 to mice. The JD-20 concentrations generated in brain and blood were analyzed and area under the curve (AUC) values for brain and serum were obtained (FIG. 7). The AUCbrain/AUCserum ratio for amide MA-JD-20 is observed to be 0.89. […] The results obtained from the single point drug distribution were confirmed by the AUC analyses.

Human FAAH = Human FAAH (Homo sapiens (Human), UniProt O00519); experiment: FAAH activity in cell homogenate; type: biochemical
Experimental: COS-7 cells (ATCC CRL-1651) were cultured in Dulbecco's Modified Eagle's Medium supplemented with 10% FBS, penicillin ([…]), and streptomycin ([…]). Cells (800,000/well) were seeded into 6-well plates (Falcon 353046) and left to adhere overnight. Cells were transfected with pcDNA4-FAAH-FLAG with Lipofectamine 2000 (Invitrogen) according to the manufacturer's protocol. Mock transfection controls were done with transfection reagent and no DNA. Cells were washed 4-days post transfection with cold PBS and scraped into TE buffer (125 mM Tris, 1 mM EDTA, pH 9) and sonicated (10 sec, 60 Sonic Dismembrator, Fisher). Cell homogenates were stored at −80° C. and protein concentrations were determined by BCA (Pierce). Cell homogenates were diluted into TE buffer containing 0.1% fatty-acid free BSA (Alfa Aesar). Substrates were added as 50× stocks in DMSO into 50 μL aliquots of homogenate to a final concentration of 100 μM. Reactions were performed with homogenate protein at 31.25 μg/mL for 15 min at 37° C. Reactions were quenched with 100 μL acetonitrile and vortexed for 20 s. Samples were clarified by centrifuge (10,000 rpm, 15 min, 4° C.). The supernatant is diluted 50-fold into 2:1 MeCN:H2O containing 300 nM d11-arachindonic acid and 30 nM d6-sobetirome. Samples were centrifuged again (13,200 rpm, 15 min, 4° C.). Products were quantified by LC/MS-MS with standard curves generated from mock samples. Observed rates are expressed as nmol product per mg protein homogenate per min.
FAAH was overexpressed in COS-7 cells as described above and cell homogenate was used to measure observed rates of substrate cleavage compared with the classic endogenous FAAH substrate anandamide (AEA). Substrate were all tested at 100 μM. Compared to AEA, the thyromimetic amides MA-GC 1 (9-fold), MA-JD20 (31-fold), and MA-JD21 (20-fold) show decreased rates. […] Observed rates are expressed as nmol product per mg homogenate protein per min.

Human FAAH, sequence (O00519 whole entry): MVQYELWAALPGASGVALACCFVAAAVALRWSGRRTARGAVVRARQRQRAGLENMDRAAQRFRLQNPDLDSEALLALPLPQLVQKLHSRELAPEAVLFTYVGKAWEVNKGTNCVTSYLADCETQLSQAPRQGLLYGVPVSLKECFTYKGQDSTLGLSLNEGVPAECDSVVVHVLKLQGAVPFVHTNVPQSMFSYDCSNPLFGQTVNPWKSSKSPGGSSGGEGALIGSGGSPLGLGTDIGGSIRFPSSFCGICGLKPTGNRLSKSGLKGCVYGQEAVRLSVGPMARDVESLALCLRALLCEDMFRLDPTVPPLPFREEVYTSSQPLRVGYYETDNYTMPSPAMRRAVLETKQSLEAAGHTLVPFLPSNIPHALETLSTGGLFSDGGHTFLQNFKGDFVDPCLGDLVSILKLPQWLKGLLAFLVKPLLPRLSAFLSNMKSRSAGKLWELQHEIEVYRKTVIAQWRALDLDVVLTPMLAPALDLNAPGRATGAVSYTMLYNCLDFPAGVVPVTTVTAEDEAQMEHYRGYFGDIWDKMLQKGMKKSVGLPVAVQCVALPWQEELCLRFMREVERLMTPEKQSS

CNC(=O)COc1cc(Br)c(Cc2ccc(O)c(C(C)C)c2)c(Br)c1 [MA-JD20, 2-(3,5-dibromo-4-(4-hydroxy-3-isopropylbenzyl)phenoxy)-N-methylacetamide]
parent drug delivered to the CNS compared to unmodified JD-20 or JD-21 [1]: delivers more of the parent drugs to the CNS | Cmax and Tmax time in the brain tissue [2]: around 2 h | FAAH substrate (Human FAAH; 100 μM, COS-7 cell homogenate): substrates for fatty-acid amide hydrolase (FAAH) | decreased observed rate of substrate cleavage compared to AEA (Human FAAH; substrate 100 μM, FAAH overexpressed in COS-7 cell homogenate): 31 fold
